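Assay format: 96-well plates, 48-hour exposure. At the GI50, growth is halved.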 The source made the active and inactive calls. Cut-off read from the data, not from the text of the source: active = GI50 up to about 1.1 µM and inactive = higher.
Assays:
Test in all cases: growth of human tumour cells (NCI), 48 h
OVCAR-5 = test system: OVCAR-5
MDA-MB-435 = test system: MDA-MB-435
LOX IMVI = test system: LOX IMVI
SNB-75 = test system: SNB-75
K562 = test system: K562
SN12C = test system: SN12C
U-251 = test system: U-251
BT-549 = test system: BT-549
A549 = test system: A549
SF-268 = test system: SF-268
Malme-3M = test system: Malme-3M
HL-60 = test system: HL-60
UO-31 = test system: UO-31
PC-3 = test system: PC-3
CAKI-1 = test system: CAKI-1
NCI-H460 = test system: NCI-H460
HOP-92 = test system: HOP-92
SK-MEL-2 = test system: SK-MEL-2
MOLT-4 = test system: MOLT-4
SW-620 = test system: SW-620

## C=C1CC(CNc2cc(Cl)nc(N)n2)C1
OVCAR-5
  GI50: > 100 µM (inactive)
MDA-MB-435
  GI50: > 100 µM (inactive)
LOX IMVI
  GI50: > 100 µM (inactive)
SNB-75
  GI50: > 100 µM (inactive)
K562
  GI50: 71.6 µM (inactive)
SN12C
  GI50: > 100 µM (inactive)
U-251
  GI50: 55.6 µM (inactive)
BT-549
  GI50: 77.3 µM (inactive)
A549
  GI50: > 100 µM (inactive)
SF-268
  GI50: > 100 µM (inactive)
Malme-3M
  GI50: > 100 µM (inactive)
HL-60
  GI50: > 100 µM (inactive)
UO-31
  GI50: > 100 µM (inactive)
PC-3
  GI50: > 100 µM (inactive)
CAKI-1
  GI50: 74.5 µM (inactive)
NCI-H460
  GI50: > 100 µM (inactive)
HOP-92
  GI50: 78.2 µM (inactive)
SK-MEL-2
  GI50: > 100 µM (inactive)
MOLT-4
  GI50: > 100 µM (inactive)
SW-620
  GI50: > 100 µM (inactive)

## Cc1[nH]n(-c2ccccc2)c(=O)c1C(N(CCc1ccccc1)C1=NCC(C)S1)(C(F)(F)F)C(F)(F)F (stereo not given)
OVCAR-5
  GI50: 8.65 µM (inactive)
MDA-MB-435
  GI50: 10.2 µM (inactive)
LOX IMVI
  GI50: 0.164 µM (active)
SNB-75
  GI50: 16.5 µM (inactive)
K562
  GI50: 15.2 µM (inactive)
SN12C
  GI50: 17.8 µM (inactive)
U-251
  GI50: 7.41 µM (inactive)
BT-549
  GI50: 10.4 µM (inactive)
A549
  GI50: 15.1 µM (inactive)
SF-268
  GI50: 21.4 µM (inactive)
Malme-3M
  GI50: 11.1 µM (inactive)
HL-60
  GI50: 7.69 µM (inactive)
UO-31
  GI50: 10.4 µM (inactive)
PC-3
  GI50: 16.1 µM (inactive)
CAKI-1
  GI50: 13.5 µM (inactive)
NCI-H460
  GI50: 13.9 µM (inactive)
HOP-92
  GI50: 0.352 µM (active)
SK-MEL-2
  GI50: 8.51 µM (inactive)
MOLT-4
  GI50: 20.5 µM (inactive)
SW-620
  GI50: 18.1 µM (inactive)

## CCCCCCc1cc2cc(-c3csc(CC#N)n3)c(=O)oc2cc1O
OVCAR-5
  GI50: > 100 µM (inactive)
MDA-MB-435
  GI50: > 100 µM (inactive)
LOX IMVI
  GI50: > 100 µM (inactive)
SNB-75
  GI50: 32.1 µM (inactive)
K562
  GI50: > 69.2 µM (inactive)
SN12C
  GI50: 99.1 µM (inactive)
U-251
  GI50: 6.4 µM (inactive)
BT-549
  GI50: 6.17 µM (inactive)
A549
  GI50: > 100 µM (inactive)
SF-268
  GI50: 18.7 µM (inactive)
Malme-3M
  GI50: > 100 µM (inactive)
HL-60
  GI50: > 44.3 µM (inactive)
UO-31
  GI50: 27 µM (inactive)
PC-3
  GI50: > 100 µM (inactive)
CAKI-1
  GI50: > 44.6 µM (inactive)
NCI-H460
  GI50: 8.55 µM (inactive)
HOP-92
  GI50: 7.48 µM (inactive)
SK-MEL-2
  GI50: > 100 µM (inactive)
MOLT-4
  GI50: 43.1 µM (inactive)
SW-620
  GI50: 26.2 µM (inactive)

## C=CCOC(=O)[C@@H]1C[C@@H](OC(C)(C)C)CN1C(=O)[C@@H]1[C@H]2OC(C)(C)O[C@H]2CN1C(=O)OCC1c2ccccc2-c2ccccc21
OVCAR-5
  GI50: 16.9 µM (inactive)
MDA-MB-435
  GI50: 17.2 µM (inactive)
LOX IMVI
  GI50: 2.3 µM (inactive)
SNB-75
  GI50: 17.5 µM (inactive)
K562
  GI50: 11 µM (inactive)
SN12C
  GI50: 17 µM (inactive)
U-251
  GI50: 12.6 µM (inactive)
BT-549
  GI50: 20.1 µM (inactive)
A549
  GI50: 15.3 µM (inactive)
SF-268
  GI50: 20.8 µM (inactive)
Malme-3M
  GI50: 18.2 µM (inactive)
HL-60
  GI50: 11 µM (inactive)
UO-31
  GI50: 0.15 µM (active)
PC-3
  GI50: 15.7 µM (inactive)
CAKI-1
  GI50: 4.88 µM (inactive)
NCI-H460
  GI50: 10.5 µM (inactive)
HOP-92
  GI50: 18.1 µM (inactive)
SK-MEL-2
  GI50: 32.2 µM (inactive)
MOLT-4
  GI50: 15.6 µM (inactive)
SW-620
  GI50: 20.9 µM (inactive)

## CCOCc1nc2c(OC)c(-c3nc4ccc(N5CCN(C)CC5)cc4[nH]3)cc(OC)c2[nH]1
OVCAR-5
  GI50: 83.6 µM (inactive)
MDA-MB-435
  GI50: 20.6 µM (inactive)
LOX IMVI
  GI50: 21.1 µM (inactive)
SNB-75
  GI50: 28.9 µM (inactive)
K562
  GI50: 35.6 µM (inactive)
SN12C
  GI50: 74.3 µM (inactive)
U-251
  GI50: 43.3 µM (inactive)
BT-549
  GI50: 66.4 µM (inactive)
A549
  GI50: 46.9 µM (inactive)
SF-268
  GI50: 63.4 µM (inactive)
Malme-3M
  GI50: 18 µM (inactive)
HL-60
  GI50: 4.39 µM (inactive)
UO-31
  GI50: 22.1 µM (inactive)
PC-3
  GI50: 63.4 µM (inactive)
CAKI-1
  GI50: 27.6 µM (inactive)
NCI-H460
  GI50: 26.4 µM (inactive)
HOP-92
  GI50: > 100 µM (inactive)
SK-MEL-2
  GI50: 20.6 µM (inactive)
MOLT-4
  GI50: 31.2 µM (inactive)
SW-620
  GI50: 34.7 µM (inactive)

## O=C(NCCCN1CCN(CCCNC(=O)c2cc(-c3ccccc3)nc3ccccc23)CC1)c1cc(-c2ccccc2)nc2ccccc12
OVCAR-5
  GI50: 29.6 µM (inactive)
MDA-MB-435
  GI50: 4.15 µM (inactive)
LOX IMVI
  GI50: 2.86 µM (inactive)
SNB-75
  GI50: > 38.1 µM (inactive)
K562
  GI50: 5.02 µM (inactive)
SN12C
  GI50: 16.3 µM (inactive)
U-251
  GI50: 12.5 µM (inactive)
BT-549
  GI50: 17.6 µM (inactive)
A549
  GI50: 20.6 µM (inactive)
SF-268
  GI50: > 38.5 µM (inactive)
Malme-3M
  GI50: 1.59 µM (inactive)
HL-60
  GI50: > 32.7 µM (inactive)
UO-31
  GI50: 9.18 µM (inactive)
PC-3
  GI50: 9.62 µM (inactive)
CAKI-1
  GI50: 7.59 µM (inactive)
NCI-H460
  GI50: 9.2 µM (inactive)
HOP-92
  GI50: 5.6 µM (inactive)
SK-MEL-2
  GI50: 16.3 µM (inactive)
MOLT-4
  GI50: 14 µM (inactive)
SW-620
  GI50: 9.71 µM (inactive)

## CCOC(=O)Cn1nnc2ccc(Nc3nc4ccccc4nc3-c3ccccc3)cc21
OVCAR-5
  GI50: > 100 µM (inactive)
MDA-MB-435
  GI50: > 100 µM (inactive)
LOX IMVI
  GI50: > 100 µM (inactive)
SNB-75
  GI50: 30.8 µM (inactive)
K562
  GI50: > 100 µM (inactive)
SN12C
  GI50: > 100 µM (inactive)
U-251
  GI50: 71.4 µM (inactive)
BT-549
  GI50: > 100 µM (inactive)
A549
  GI50: > 100 µM (inactive)
SF-268
  GI50: 65.5 µM (inactive)
Malme-3M
  GI50: > 100 µM (inactive)
HL-60
  GI50: > 100 µM (inactive)
UO-31
  GI50: 4.72 µM (inactive)
PC-3
  GI50: > 100 µM (inactive)
CAKI-1
  GI50: > 100 µM (inactive)
NCI-H460
  GI50: 48.6 µM (inactive)
HOP-92
  GI50: > 100 µM (inactive)
SK-MEL-2
  GI50: > 100 µM (inactive)
MOLT-4
  GI50: > 100 µM (inactive)
SW-620
  GI50: > 100 µM (inactive)

Source: ChEMBL document CHEMBL1201862, “PubChem BioAssay data set” (2004)
